Counter-ions that a name gives are not always drawn.
Test system: anesthetized rats
Experiment: Anesthetized rat spirometry screening assay (ventilatory activity, minute volume)
Format: in vivo
Conditions: increase in minute volume (VE); for change in vivo at 0.3 mg/kg: 0.3 mg/kg IV bolus, read-out: VE % Inc @ 0.3 mg/kg IV; for change in vivo at 3 mg/kg: 3.0 mg/kg IV bolus, read-out: VE % Inc @ 3.0 mg/kg IV
Method: Anesthetized rats provide a quick method of screening compounds for respiratory and cardiovascular activity.
Rats were initially anesthetized with 3% isoflurane (inhaled) and femoral artery and vein cannulas were surgically inserted. Once cannulated, the rats were transitioned to urethane anesthesia (1.5 g/kg; i.v.) and a tracheal cut-down was performed. After placing the tracheal cannula, it was connected to a pneumotachometer to record respiratory airflow from which respiratory rate (RR), tidal volume (VT), and their product minute volume (MV, also termed VE) were derived. After the surgical preparation was complete, animals were allowed to stabilize for 30 minutes while respiratory rate, tidal volume, minute volume, blood pressure and heart rate were recorded continuously. Arterial blood gases (ABG) were obtained from arterial blood collected from the femoral artery. ABG measurements were taken before and 6 minutes after vehicle and each dose of compound administered. Compounds being screened were administered via bolus injections through the venous cannula followed by a saline flush (total time of administration is approximately 30 seconds), and the animal was monitored for at least 6 minutes for changes in cardiovascular efforts. Compounds were prepared in formulations identified to ensure optimal solubility. As such, vehicle controls were matched for the formulation of each compound tested. Dosing of the compounds being screened was conducted at 0.1 and/or 0.3 mg/kg and/or 3 mg/kg The next dose was not administered until all cardiovascular and respiratory measures had returned to baseline levels. The positive control compounds used were N-[4,6-di-(n-propylamino)-[1,3,5]triazin-2-yl]-N,O-dimethyl-hydroxylamine or N-[2,6-di-(n-propylamino)-[1,3]pyrimidin-4-yl]-N,O-dimethyl-hydroxylamine (both administered at the end of each screening experiment (0.3 mg/kg dose) to validate the experiment and also to serve as a measure with which the compound being screened could be compared.
Data were analyzed by collecting cardiovascular and respiratory data in 30 second averages (BINs). Data were plotted 2 minutes before challenge and then 6 minutes after challenge.

Compound: CCCNc1nc(NC)c2nc(N[C@H]3CCC[C@@H]3O)nc(NC)c2n1 [Compound 139, (1S,2S)-2-(4,8-Bis-methylamino-6-propylamino-pyrimido[5,4-d]pyrimidin-2-ylamino)-cyclopentanol]
- change in vivo at 0.3 mg/kg: 90%
- change in vivo at 3 mg/kg: 114%

Compound: CCCNc1nc(NC)nc2c(NC(C)(C)CO)nc(NC)nc12 [Compound 16a, 2-(2,6-Bis-methylamino-8-propylamino-pyrimido[5,4-d]-pyrimidin-4-ylamino)-2-methyl-propan-1-ol hydrochloride]
- change in vivo at 0.3 mg/kg: 80%

Compound: CNc1nc(NCC2CC2)nc2c(NC)nc(NCCO)nc12 [Compound 90, 2-[6-(Cyclopropylmethyl-amino)-4,8-bis-methylamino-pyrimido[5,4-d]pyrimidin-2-ylamino]-ethanol]
- change in vivo at 0.3 mg/kg: 26%

Compound: CCCNc1nc(NC)nc2c(NC(C)C(C)O)nc(NC)nc12 (stereo not drawn) [Compound 26a, 3-(2,6-Bis-methylamino-8-propylamino-pyrimido[5,4-d]pyrimidin-4-ylamino)-butan-2-ol Hydrochloride]
- change in vivo at 0.3 mg/kg: 39%
- change in vivo at 3 mg/kg: 143%

Compound: CCCNc1nc(NC)c2nc(NCC(O)CO)nc(NC)c2n1 (stereo not drawn) [Compound 121, 3-(4,8-Bis-methylamino-6-propylamino-pyrimido[5,4-d]pyrimidin-2-ylamino)-propane-1,2-diol]
- change in vivo at 0.3 mg/kg: 0%
- change in vivo at 3 mg/kg: 38%

Compound: CCCNc1nc(NC)c2nc(NC(C)C(C)O)nc(NC)c2n1 (stereo not drawn) [Compound 119, 3-(4,8-Bis-methylamino-6-propylamino-pyrimido[5,4-d]pyrimidin-2-ylamino)-butan-2-ol]
- change in vivo at 0.3 mg/kg: 10%
- change in vivo at 3 mg/kg: 151%

Compound: CCNc1nc(NC)c2nc(NCC(O)CC)nc(NC)c2n1 (stereo not drawn) [Compound 147, 1-(6-Ethylamino-4,8-bis-methylamino-pyrimido[5,4-d]pyrimidin-2-ylamino)-butan-2-ol]
- change in vivo at 0.3 mg/kg: 31%
- change in vivo at 3 mg/kg: 147%

Compound: CCCNc1nc(NC)nc2c(NCC(O)C(F)(F)F)nc(NC)nc12 (stereo not drawn) [Compound 22a, 3-(2,6-Bis-methylamino-8-propylamino-pyrimido[5,4-d]pyrimidin-4-ylamino)-1,1,1-trifluoro-propan-2-ol Hydrochloride]
- change in vivo at 0.3 mg/kg: 102%

Compound: CCCNc1nc(NC)c2nc(N[C@H]3c4ccccc4C[C@@H]3O)nc(NC)c2n1 [Compound 125, (1S,2S)-1-(4,8-Bis-methylamino-6-propylamino-pyrimido[5,4-d]-pyrimidin-2-ylamino)-indan-2-ol]
- change in vivo at 0.3 mg/kg: 38%
- change in vivo at 3 mg/kg: 84%

Compound: CNc1nc(NC[C@@H](C)O)nc2c(NC)nc(NCC3CC3)nc12 [Compound 144, (R)-1-[6-(Cyclopropylmethyl-amino)-4,8-bis-methylamino-pyrimido[5,4-d]pyrimidin-2-ylamino]-propan-2-ol]
- change in vivo at 0.3 mg/kg: 14%
- change in vivo at 3 mg/kg: 98%

Compound: CNc1nc(NCC(C)(C)O)c2nc(NC)nc(NCC3CC3)c2n1 [Compound 46a, 1-[8-(Cyclopropylmethyl-amino)-2,6-bis-methylamino-pyrimido[5,4-d]pyrimidin-4-ylamino]-2-methyl-propan-2-ol Hydrochloride]
- change in vivo at 0.3 mg/kg: 79%
- change in vivo at 3 mg/kg: 203%

Compound: CCCNc1nc(NC)c2nc(N(C)CC(C)(C)O)nc(NC)c2n1 [Compound 96, 1-[(4,8-Bis-methylamino-6-propylamino-pyrimido[5,4-d]pyrimidin-2-yl)-methyl-amino]-2-methyl-propan-2-ol]
- change in vivo at 0.3 mg/kg: 70%
- change in vivo at 3 mg/kg: 96%

Compound: CCCNc1nc(NCC(F)F)nc2c(NCC(C)(C)O)nc(NCC(F)F)nc12 [Compound 33a, 1-[2,6-Bis-(2,2-difluoro-ethylamino)-8-propylamino-pyrimido[5,4-d]-pyrimidin-4-ylamino]-2-methyl-propan-2-ol Hydrochloride]
- change in vivo at 0.3 mg/kg: 23%
- change in vivo at 3 mg/kg: 115%

Compound: CCCNc1nc(NC)nc2c(N[C@@H]3c4ccccc4C[C@H]3O)nc(NC)nc12 [Compound 80, (1R,2R)-1-(2,6-Bis-methylamino-8-propylamino-pyrimido[5,4-d]-pyrimidin-4-ylamino)-indan-2-ol]
- change in vivo at 0.3 mg/kg: 71%
- change in vivo at 3 mg/kg: 95%

Compound: CCCNc1nc(NC)c2nc(N[C@H]3CCCC[C@@H]3O)nc(NC)c2n1 [Compound 133, (1S,2S)-2-(4,8-Bis-methylamino-6-propylamino-pyrimido[5,4-d]pyrimidin-2-ylamino)-cyclohexanol]
- change in vivo at 0.3 mg/kg: 35%
- change in vivo at 3 mg/kg: 111%

Compound: CCCNc1nc(NC)c2nc(NC[C@H](C)O)nc(NC)c2n1 [Compound 113, (S)-1-(4,8-Bis-methylamino-6-propylamino-pyrimido[5,4-d]pyrimidin-2-ylamino)-propan-2-ol]
- change in vivo at 0.3 mg/kg: 111%
- change in vivo at 3 mg/kg: 190%

Compound: CCCNc1nc(NC)nc2c(N[C@H]3CCCC[C@H]3O)nc(NC)nc12 [Compound 82, (1R,2S)-2-(2,6-Bis-methylamino-8-propylamino-pyrimido[5,4-d]pyrimidin-4-ylamino)-cyclohexanol]
- change in vivo at 0.3 mg/kg: 102%
- change in vivo at 3 mg/kg: 132%

Compound: CC[C@@H](C)Nc1nc(NC)c2nc(NC[C@H](C)O)nc(NC)c2n1 [Compound 101, (S)-1-[6-((R)-sec-Butylamino)-4,8-bis-methylamino-pyrimido[5,4-d]pyrimidin-2-ylamino]-propan-2-ol]
- change in vivo at 0.3 mg/kg: 20%
- change in vivo at 3 mg/kg: 129%

Compound: C=C(C)CNc1nc(NC)c2nc(NC[C@H](C)O)nc(NC)c2n1 [Compound 159, (S)-1-[6-(2-Methyl-allylamino)-4,8-bis-methylamino-pyrimido[5,4-d]-pyrimidin-2-ylamino]-propan-2-ol]
- change in vivo at 0.3 mg/kg: 61%
- change in vivo at 3 mg/kg: 160%

Compound: CCCNc1nc(NC)nc2c(NCC(C)O)nc(NC)nc12 (stereo not drawn) [Compound 10a, 1-(2,6-Bis-methylamino-8-propylamino-pyrimido[5,4-d]-pyrimidin-4-ylamino)-propan-2-ol hydrochloride]
- change in vivo at 0.3 mg/kg: 93%

Compound: CCCNc1nc(NC)nc2c(N[C@@H](C)CO)nc(NC)nc12 [Compound 18a, (S)-2-(2,6-Bis-methylamino-8-propylamino-pyrimido[5,4-d]-pyrimidin-4-ylamino)-propan-1-ol Hydrochloride]
- change in vivo at 0.3 mg/kg: 50%

Compound: CCCNc1nc(NCC)c2nc(NC[C@@H](C)O)nc(NCC)c2n1 [Compound 169, (R)-1-(4,8-Bis-ethylamino-6-propylamino-pyrimido[5,4-d]-pyrimidin-2-ylamino)-propan-2-ol]
- change in vivo at 0.3 mg/kg: 113%
- change in vivo at 3 mg/kg: 142%

Compound: CNc1nc(N(C)C)nc2c(NC)nc(NCCO)nc12 [Compound 92, 2-(6-Dimethylamino-4,8-bis-methylamino-pyrimido[5,4-d]-pyrimidin-2-ylamino)-ethanol]
- change in vivo at 0.3 mg/kg: 49%
- change in vivo at 3 mg/kg: 148%

Compound: CCCNc1nc(NC)c2nc(NCC(O)C(F)(F)F)nc(NC)c2n1 (stereo not drawn) [Compound 111, 3-(4,8-Bis-methylamino-6-propylamino-pyrimido[5,4-d]pyrimidin-2-ylamino)-1,1,1-trifluoro-propan-2-ol]
- change in vivo at 0.3 mg/kg: 18%
- change in vivo at 3 mg/kg: 105%

Compound: CCCNc1nc(NC)nc2c(NCC(O)(CC)CC)nc(NC)nc12 [Compound 74a, 3-[(2,6-Bis-methylamino-8-propylamino-pyrimido[5,4-d]pyrimidin-4-ylamino)-methyl]-pentan-3-ol Hydrochloride]
- change in vivo at 0.3 mg/kg: 153%
- change in vivo at 3 mg/kg: 208%

— patent US10294228B2, “Breathing control modulating compounds, and methods of making and using same” (NEURAD LTD., priority 2015, dated 2019)
